According to US8461328B2, “Tricyclic heterocyclic compounds, compositions and methods of use thereof” (Genentech, Inc., priority 2010, dated 2013):

Experiments:
Assay type in all cases: biochemical
JAK1 = molecular target: T1, JAK1 (Homo sapiens, UniProt P23458); experiment: JAK1 inhibition (Table 4); settings: read-out: JAK1 Ki
T1 construct: made in house; host or cells: SF9 insect cells (baculovirus)

JAK2 = molecular target: T2, JAK2 (Homo sapiens, UniProt O60674); experiment: JAK2 inhibition (Table 4); settings: read-out: JAK2 Ki
T2 construct: made in house; host or cells: SF9 insect cells (baculovirus)

JAK3 = molecular target: T3, JAK3 (Homo sapiens, UniProt P52333); experiment: JAK3 inhibition (Table 4); settings: read-out: JAK3 Ki
T3 construct: made in house; host or cells: SF9 insect cells (baculovirus)

TYK2 = molecular target: T4, TYK2 (Homo sapiens, UniProt P29597); experiment: TYK2 inhibition (Table 4)
T4 construct: made in house; host or cells: SF9 insect cells (baculovirus)
T4 sequence (P29597 873-1187): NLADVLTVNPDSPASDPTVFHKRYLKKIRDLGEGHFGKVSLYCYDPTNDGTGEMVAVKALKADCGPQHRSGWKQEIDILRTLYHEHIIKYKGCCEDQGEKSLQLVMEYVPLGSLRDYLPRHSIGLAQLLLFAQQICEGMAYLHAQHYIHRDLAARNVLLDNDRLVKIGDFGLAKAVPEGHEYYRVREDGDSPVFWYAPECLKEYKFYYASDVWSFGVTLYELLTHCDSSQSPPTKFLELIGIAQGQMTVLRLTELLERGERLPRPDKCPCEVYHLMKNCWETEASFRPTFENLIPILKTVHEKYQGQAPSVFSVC

T2 sequence (O60674 812-1132): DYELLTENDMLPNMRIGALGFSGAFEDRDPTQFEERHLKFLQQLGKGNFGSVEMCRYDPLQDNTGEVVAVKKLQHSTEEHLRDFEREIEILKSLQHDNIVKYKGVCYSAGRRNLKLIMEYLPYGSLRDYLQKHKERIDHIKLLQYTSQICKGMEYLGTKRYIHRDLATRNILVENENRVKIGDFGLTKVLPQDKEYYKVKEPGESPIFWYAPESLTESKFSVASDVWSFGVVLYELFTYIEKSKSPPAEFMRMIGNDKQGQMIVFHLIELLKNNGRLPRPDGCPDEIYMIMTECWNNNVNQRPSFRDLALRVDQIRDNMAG
T3 sequence (P52333 783-1124): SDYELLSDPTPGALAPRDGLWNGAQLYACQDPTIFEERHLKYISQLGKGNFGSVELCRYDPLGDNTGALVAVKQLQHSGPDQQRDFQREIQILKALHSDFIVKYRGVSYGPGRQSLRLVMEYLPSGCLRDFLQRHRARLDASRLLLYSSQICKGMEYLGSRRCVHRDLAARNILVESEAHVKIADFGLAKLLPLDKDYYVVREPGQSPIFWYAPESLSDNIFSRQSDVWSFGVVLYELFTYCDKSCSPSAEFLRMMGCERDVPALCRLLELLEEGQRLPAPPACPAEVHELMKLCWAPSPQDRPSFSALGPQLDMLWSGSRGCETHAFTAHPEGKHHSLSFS
T1 sequence (P23458 852-1154): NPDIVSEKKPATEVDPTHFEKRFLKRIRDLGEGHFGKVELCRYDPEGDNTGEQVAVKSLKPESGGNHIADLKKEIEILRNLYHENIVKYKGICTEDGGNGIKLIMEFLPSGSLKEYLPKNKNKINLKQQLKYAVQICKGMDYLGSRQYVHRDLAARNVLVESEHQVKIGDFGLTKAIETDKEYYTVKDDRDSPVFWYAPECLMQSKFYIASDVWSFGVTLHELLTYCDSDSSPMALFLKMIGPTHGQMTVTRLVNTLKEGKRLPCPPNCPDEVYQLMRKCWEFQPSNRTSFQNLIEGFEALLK

Row | Ki (JAK1) | Ki (JAK2) | Ki (JAK3) | Ki (TYK2) | SMILES
1 | 29.1 nM | 140 nM | 117 nM | 89.3 nM | OCc1nc2cnc3[nH]ccc3c2n1C1CC2CCC1O2 (single isomer, unassigned) [Example 852, endo-[1-(7-Oxa-bicyclo[2.2.1]hept-2-yl)-1,6-dihydro-1,3,5,6-tetraaza-as-indacen-2-yl]-methanol]
2 | 3.88 nM | 22.2 nM | 27.9 nM | 26.5 nM | CCN1CCC(n2c([C@@H](C)O)nc3cnc4[nH]ccc4c32)C(F)(F)C1 (single isomer, unassigned) [Example 879]
3 | 1.95 nM | 19.4 nM | 4.97 nM | 24.7 nM | CCN1CCC(n2c([C@@H](C)O)nc3cnc4[nH]ccc4c32)C(F)(F)C1 (single isomer, unassigned) [Example 880]
4 | 14.7 nM | 96.4 nM | 128 nM | 57.1 nM | CC(O)c1nc2cnc3[nH]ccc3c2n1C1CC2CCC1O2 (single isomer, unassigned) [Example 905, (o)-1-[1-(7-Oxa-bicyclo[2.2.1]hept-2-yl)-1,6-dihydro-1,3,5,6-tetraaza-as-indacen-2-yl]-ethanol]
5 | 24 nM | 142 nM | 195 nM | 76.9 nM | CC(O)c1nc2cnc3[nH]ccc3c2n1C1CC2CCC1O2 (single isomer, unassigned) [Example 907, (o)-1-[1-(7-Oxa-bicyclo[2.2.1]hept-2-yl)-1,6-dihydro-1,3,5,6-tetraaza-as-indacen-2-yl]-ethanol]
6 | 79.8 nM | 403 nM | 334 nM | 215 nM | CC(O)c1nc2cnc3[nH]ccc3c2n1C1CC2CCC1O2 (single isomer, unassigned) [Example 936, (endo)-1-[1-(7-Oxa-bicyclo[2.2.1]hept-2-yl)-1,6-dihydro-1,3,5,6-tetraaza-as-indacen-2-yl]-ethanol]
7 | 80.5 nM | 174 nM | 73.3 nM | 144 nM | CC(O)c1nc2cnc3[nH]ccc3c2n1C1CC2CCC1O2 (single isomer, unassigned) [Example 937, Endo-1-[1-(7-Oxa-bicyclo[2.2.1]hept-2-yl)-1,6-dihydro-1,3,5,6-tetraaza-as-indacen-2-yl]-ethanol]
8 | 0.68 nM | 18.1 nM | 5.58 nM | 7.2 nM | C[C@@H](O)c1nc2cnc3[nH]ccc3c2n1C1CCNCC1(F)F (single isomer, unassigned) [Example 939]
9 | 177 nM | 518 nM | 913 nM | 1510 nM | c1cc2c(ncc3ncn([C@@H]4CCCNC4)c32)[nH]1 [Example 2, (R)-1-Piperidin-3-yl-1,6-dihydro-1,2,3,5,6-tetraaza-as-indacene]
10 | 348 nM | 191 nM | 905 nM | 1640 nM | CC(C)(C)OC(=O)N1CC(n2cnc3cnc4[nH]ccc4c32)C1 [Example 3, 3-(6H-1,2,3,5,6-Tetraaza-as-indacen-1-yl)-azetidine-1-carboxylic acid tert-butyl ester]
11 | 11.9 nM | 21.4 nM | 373 nM | 134 nM | O=C(c1ccccc1)N1CCC[C@@H](n2cnc3cnc4[nH]ccc4c32)C1 [Example 6, Phenyl-[(R)-3-(6H-1,2,3,5,6-tetraaza-as-indacen-1-yl)-piperidin-1-yl]-methanone]
12 | 8.6 nM | 13.3 nM | 283 nM | 64.6 nM | O=C(Cc1ccccc1)N1CCC(n2cnc3cnc4[nH]ccc4c32)CC1 [Example 7, 2-Phenyl-1-[4-(6H-1,2,3,5,6-tetraaza-as-indacen-1-yl)-piperidin-1-yl]-ethanone]
13 | 12.9 nM | 43.8 nM | 68.9 nM | 134 nM | c1cc2c(ncc3ncn([C@@H]4CCCN(Cc5cocn5)C4)c32)[nH]1 [Example 8, 1-((R)-1-Oxazol-4-ylmethyl-piperidin-3-yl)-1,6-dihydro-1,2,3,5,6-tetraaza-as-indacene]
14 | 7.48 nM | 6.5 nM | 16.6 nM | 35.4 nM | CS(=O)(=O)N1CCC[C@@H](n2cnc3cnc4[nH]ccc4c32)C1 [Example 9, 1-((R)-1-Methanesulfonyl-piperidin-3-yl)-1,6-dihydro-1,2,3,5,6-tetraaza-as-indacene]
15 | 12.8 nM | 21.7 nM | 21.2 nM | 88.5 nM | N#CCCN1CCC[C@@H](n2cnc3cnc4[nH]ccc4c32)C1 [Example 10, 3-[(R)-3-(6H-1,2,3,5,6-Tetraaza-as-indacen-1-yl)-piperidin-1-yl]-propionitrile]
16 | 17.3 nM | 37.4 nM | 94.5 nM | 176 nM | NC(=O)CN1CCC[C@@H](n2cnc3cnc4[nH]ccc4c32)C1 [Example 11, 2-[(R)-3-(6H-1,2,3,5,6-Tetraaza-as-indacen-1-yl)-piperidin-1-yl]acetamide]
17 | 31 nM | 35.7 nM | 17.2 nM | 170 nM | c1ccc(N2CCC[C@@H](n3cnc4cnc5[nH]ccc5c43)C2)cc1 [Example 12, 1-((R)-1-Phenyl-piperidin-3-yl)-1,6-dihydro-1,2,3,5,6-tetraaza-as-indacene]
18 | 11.4 nM | 13.6 nM | 26.5 nM | 85.6 nM | c1cc(N2CCC[C@@H](n3cnc4cnc5[nH]ccc5c43)C2)ncn1 [Example 14, 1-((R)-1-Pyrimidin-4-yl-piperidin-3-yl)-1,6-dihydro-1,2,3,5,6-tetraaza-as-indacene]
19 | 102 nM | 86.5 nM | 769 nM | 443 nM | OCCc1nc2cnc3[nH]ccc3c2n1[C@@H]1CCCN(Cc2ccccc2)C1 [Example 15, 2-[1-((R)-1-Benzyl-piperidin-3-yl)-1,6-dihydro-1,2,3,5,6-tetraaza-as-indacen-2-yl]ethanol]
20 | 219 nM | 680 nM | 1270 nM | 758 nM | OCCc1nc2cnc3[nH]ccc3c2n1[C@@H]1CCCNC1 [Example 16, 2-((R)-1-Piperidin-3-yl-1,6-dihydro-1,2,3,5,6-tetraaza-as-indacen-2-yl)ethanol]
21 | 4.04 nM | 17.1 nM | 79.1 nM | 29.8 nM | N#CCC(=O)N1CCC[C@@H](n2c(CCO)nc3cnc4[nH]ccc4c32)C1 [Example 17, 3-{(R)-3-[2-(2-Hydroxy-ethyl)-6H-1,2,3,5,6-tetraaza-as-indacen-1-yl]-piperidin-1-yl}-3-oxopropionitrile]
22 | 24.6 nM | 40.1 nM | 323 nM | 273 nM | c1ccc(CN2CCC[C@@H](n3nnc4cnc5[nH]ccc5c43)C2)cc1 [Example 18, 1-((R)-1-Benzyl-piperidin-3-yl)-1,6-dihydro-1,2,3,5,6-pentaaza-as-indacene]
23 | 1.49 nM | 3.72 nM | 24.5 nM | 20.3 nM | N#CCC(=O)N1CCC[C@@H](n2nnc3cnc4[nH]ccc4c32)C1 [Example 19, 3-Oxo-3-[(R)-3-(6H-1,2,3,5,6-pentaaza-as-indacen-1-yl)-piperidin-1-yl]propionitrile]
24 | 9.93 nM | 38.5 nM | 37.6 nM | 627 nM | CNC(=O)Cc1nc2cnc3[nH]ccc3c2n1C1CCN(Cc2ccccc2)CC1 [Example 21, 2-[1-(1-Benzyl-piperidin-4-yl)-1,6-dihydro-1,2,3,5,6-tetraaza-as-indacen-2-yl]-N-methyl acetamide]
25 | 1.73 nM | 6.44 nM | 10.8 nM | 69.9 nM | OCc1nc2cnc3[nH]ccc3c2n1C1CCN(Cc2ccccc2)CC1 [Example 22, [1-(1-Benzyl-piperidin-4-yl)-1,6-dihydro-1,2,3,5,6-tetraaza-as-indacen-2-yl]methanol]
26 | 6.22 nM | 62.7 nM | 9.98 nM | 616 nM | O=C(Cc1nc2cnc3[nH]ccc3c2n1C1CCN(Cc2ccccc2)CC1)N1CCOCC1 [Example 23, 2-[1-(1-Benzyl-piperidin-4-yl)-1,6-dihydro-1,2,3,5,6-tetraaza-as-indacen-2-yl]-1-morpholin-4-yl-ethanone]
27 | 10.4 nM | 68.6 nM | 29.2 nM | 735 nM | O=C1CCCN1Cc1nc2cnc3[nH]ccc3c2n1C1CCN(Cc2ccccc2)CC1 [Example 24, 1-[1-(1-Benzyl-piperidin-4-yl)-1,6-dihydro-1,2,3,5,6-tetraaza-as-indacen-2-ylmethyl]-pyrrolidin-2-one]
28 | 29.2 nM | 42.2 nM | 139 nM | 141 nM | CC(=O)N1CCC[C@@H](n2cnc3cnc4[nH]ccc4c32)C1 [Example 30, 1-[(R)-3-(6H-1,3,5,6-Tetraaza-as-indacen-1-yl)-piperidin-1-yl]ethanone]
29 | 13.2 nM | 25.9 nM | 419 nM | 159 nM | O=C(c1cccnc1)N1CCC[C@@H](n2cnc3cnc4[nH]ccc4c32)C1 [Example 31, Pyridin-3-yl-[(R)-3-(6H-1,3,5,6-tetraaza-as-indacen-1-yl)-piperidin-1-yl]methanone]
30 | 181 nM | 568 nM | 1820 nM | 3180 nM | CN(C)CC(=O)N1CCC[C@@H](n2cnc3cnc4[nH]ccc4c32)C1 [Example 32, 2-Dimethylamino-1-[(R)-3-(6H-1,3,5,6-tetraaza-as-indacen-1-yl)-piperidin-1-yl]ethanone]
